PubChem BioAssay AID248 (DTP/NCI, 2004)
Inconclusive results and toxic doses are left out. Rule as the data show it: active = T/C of 150% or more; inactive = T/C below 125%.

System: L1210 leukemia ip in BDF1 mice, survival T/C
Assay: NCI In Vivo Anticancer Drug Screen. Data for tumor model L1210 Leukemia (intraperitoneal) in B6D2F1 (BDF1) mice
Details: endpoint: mean survival time, higher = longer survival
How it was run: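 Mice bearing the transplanted tumor received compound or vehicle. Survival of the treated group was divided by that of the vehicle-treated control group to give the ratio.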

[1] = dose: 100.0 mg/kg/injection, schedule: Q04DX003 (ip), vehicle: saline with Tween-80
[2] = dose: 200.0 mg/kg/injection, schedule: Q04DX003 (ip), vehicle: saline with Tween-80
[3] = dose: 50.0 mg/kg/injection, schedule: Q01DX009 (ip), vehicle: Klucel (hydroxypropylcellulose) (HPC)
[4] = dose: 50.0 mg/kg/injection, schedule: Q04DX002 (ip), vehicle: Klucel (hydroxypropylcellulose) (HPC)
[5] = dose: 100.0 mg/kg/injection, schedule: Q01DX009 (ip), vehicle: Klucel (hydroxypropylcellulose) (HPC)
[6] = dose: 100.0 mg/kg/injection, schedule: Q04DX002 (ip), vehicle: Klucel (hydroxypropylcellulose) (HPC)
[7] = dose: 200.0 mg/kg/injection, schedule: Q01DX009 (ip), vehicle: Klucel (hydroxypropylcellulose) (HPC)
[8] = dose: 50.0 mg/kg/injection, schedule: Q01DX009 (ip), vehicle: saline with Tween-80
[9] = dose: 37.5 mg/kg/injection, schedule: Q01DX001 (ip), vehicle: Klucel (hydroxypropylcellulose) (HPC)
[10] = dose: 75.0 mg/kg/injection, schedule: Q01DX001 (ip), vehicle: Klucel (hydroxypropylcellulose) (HPC)
[11] = dose: 150.0 mg/kg/injection, schedule: Q01DX001 (ip), vehicle: Klucel (hydroxypropylcellulose) (HPC)
[12] = dose: 100.0 mg/kg/injection, schedule: Q01DX009 (ip), vehicle: saline
[13] = dose: 200.0 mg/kg/injection, schedule: Q01DX009 (ip), vehicle: saline
[14] = dose: 100.0 mg/kg/injection, schedule: Q04DX003 (ip), vehicle: Klucel (hydroxypropylcellulose) (HPC)
[15] = dose: 200.0 mg/kg/injection, schedule: Q04DX003 (ip), vehicle: Klucel (hydroxypropylcellulose) (HPC)
[16] = dose: 400.0 mg/kg/injection, schedule: Q01DX009 (ip), vehicle: Klucel (hydroxypropylcellulose) (HPC)
[17] = dose: 400.0 mg/kg/injection, schedule: Q04DX003 (ip), vehicle: Klucel (hydroxypropylcellulose) (HPC)
[18] = dose: 100.0 mg/kg/injection, schedule: Q01DX001 (ip), vehicle: saline
[19] = dose: 200.0 mg/kg/injection, schedule: Q01DX001 (ip), vehicle: saline
[20] = dose: 400.0 mg/kg/injection, schedule: Q01DX001 (ip), vehicle: saline
[21] = dose: 100.0 mg/kg/injection, schedule: Q01DX001 (ip), vehicle: carboxymethylcellulose (CMC)

Measured: T/C

O=C(/C=C/c1ccccc1)N1CC2CCC(CC2)C1
inactive: [1] 95 % of control | [2] 93 % of control

CC(CC(CCC(CC(C)CC(C)(C)C)N(C)C)N(C)C)CC(C)(C)C (centres undefined)
inactive: [3] 90 % of control | [4] 93 % of control | [5] 96 % of control | [6] 87 % of control | [7] 101 % of control

[Ni+2].[O-]c1ccccc1C=Nc1ccccc1N=Cc1ccccc1[O-]
inactive: dose: 12.5 mg/kg/injection, schedule: Q01DX009 (ip), vehicle: saline with Tween-80 93 % of control | dose: 25.0 mg/kg/injection, schedule: Q01DX009 (ip), vehicle: saline with Tween-80 93 % of control | [8] 93 % of control

Cc1ccc(-n2c(O)c(N=Nc3ccc(Cl)cc3)c(=O)n(-c3ccc(I)cc3)c2=S)cc1
inactive: [9] 92 % of control | [10] 97 % of control | [11] 100 % of control

O=C(CSc1cc(Cl)c(Cl)cc1Cl)Nc1ccccc1Br
inactive: [8] 94 % of control | dose: 100.0 mg/kg/injection, schedule: Q01DX009 (ip), vehicle: saline with Tween-80 97 % of control | dose: 200.0 mg/kg/injection, schedule: Q01DX009 (ip), vehicle: saline with Tween-80 87 % of control

COC(=O)c1ccnc(C(=O)OC)c1
inactive: dose: 100.0 mg/kg/injection, schedule: Q01DX001 (ip), vehicle: saline sonified 98 % of control | [12] 95 % of control | dose: 200.0 mg/kg/injection, schedule: Q01DX001 (ip), vehicle: saline sonified 103 % of control | [13] 95 % of control | dose: 400.0 mg/kg/injection, schedule: Q01DX001 (ip), vehicle: saline sonified 98 % of control | dose: 400.0 mg/kg/injection, schedule: Q01DX009 (ip), vehicle: saline 93 % of control

O=CC1(c2ccccc2)SCCCS1
inactive: dose: 100.0 mg/kg/injection, schedule: Q04DX003 (ip), vehicle: saline 106 % of control | dose: 200.0 mg/kg/injection, schedule: Q04DX003 (ip), vehicle: saline 97 % of control | dose: 400.0 mg/kg/injection, schedule: Q04DX003 (ip), vehicle: saline 100 % of control

O=[N+]([O-])c1ccc2c(c1)C(C(Cl)(Cl)Cl)OC(C(Cl)(Cl)Cl)O2 (centres undefined)
inactive: [5] 95 % of control | [14] 96 % of control | [7] 95 % of control | [15] 93 % of control | [16] 95 % of control | [17] 95 % of control

COc1ccc2c(c1)CC/C(=C\c1cccnc1)C2=O
inactive: dose: 100.0 mg/kg/injection, schedule: Q04DX003 (ip), vehicle: carboxymethylcellulose (CMC) 110 % of control | dose: 200.0 mg/kg/injection, schedule: Q04DX003 (ip), vehicle: carboxymethylcellulose (CMC) 96 % of control | dose: 400.0 mg/kg/injection, schedule: Q04DX003 (ip), vehicle: carboxymethylcellulose (CMC) 94 % of control

CC12CCC3c4ccc(OC(=O)c5ccc(N)cc5)cc4CCC3C1CCC2=O (centres undefined)
inactive: dose: 12.5 mg/kg/injection, schedule: Q04DX002 (ip), vehicle: saline with Tween-80 110 % of control | dose: 25.0 mg/kg/injection, schedule: Q04DX002 (ip), vehicle: saline with Tween-80 106 % of control | dose: 50.0 mg/kg/injection, schedule: Q04DX002 (ip), vehicle: saline with Tween-80 95 % of control | dose: 100.0 mg/kg/injection, schedule: Q01DX001 (sc), vehicle: steriod suspending solution 95 % of control | dose: 200.0 mg/kg/injection, schedule: Q01DX001 (sc), vehicle: steriod suspending solution 97 % of control | dose: 400.0 mg/kg/injection, schedule: Q01DX001 (sc), vehicle: steriod suspending solution 95 % of control

COc1ccc2c(c1)c1c(C)c3cnccc3c(C)c1n2CCCN
inactive: dose: 0.5 mg/kg/injection, schedule: Q01DX009 (ip), vehicle: saline 96 % of control | dose: 1.0 mg/kg/injection, schedule: Q01DX009 (ip), vehicle: saline 102 % of control | dose: 3.0 mg/kg/injection, schedule: Q01DX009 (ip), vehicle: saline 104 % of control | dose: 3.0 mg/kg/injection, schedule: Q04DX003 (ip), vehicle: saline 104 % of control | dose: 6.0 mg/kg/injection, schedule: Q01DX009 (ip), vehicle: saline 112 % of control | dose: 6.0 mg/kg/injection, schedule: Q04DX003 (ip), vehicle: saline 104 % of control | dose: 12.0 mg/kg/injection, schedule: Q01DX009 (ip), vehicle: saline 106 % of control | dose: 12.0 mg/kg/injection, schedule: Q04DX003 (ip), vehicle: saline 107 % of control

C1=CCNCC1
inactive: [18] 101 % of control | [19] 98 % of control | [20] 103 % of control

O=C1CCCN1C[CH2][Sn]([c]1ccccc1)([c]1ccccc1)[c]1ccccc1
inactive: dose: 50.0 mg/kg/injection, schedule: Q01DX009 (ip), vehicle: saline 104 % of control | [12] 96 % of control | [13] 107 % of control

CN(C)N=Nc1cc2c(cc1O)CC[C@@H]1[C@@H]2CC[C@]2(C)C(=O)CC[C@@H]12
inactive: dose: 25.0 mg/kg/injection, schedule: Q01DX009 (ip), vehicle: Klucel (hydroxypropylcellulose) (HPC) 97 % of control | [3] 90 % of control | [4] 90 % of control | [5] 110 % of control | [6] 90 % of control | [7] 103 % of control | dose: 200.0 mg/kg/injection, schedule: Q04DX002 (ip), vehicle: Klucel (hydroxypropylcellulose) (HPC) 87 % of control | [16] 96 % of control

NC(=O)C1C(=O)OC2CCCCC21 (centres undefined)
inactive: [18] 92 % of control | [19] 87 % of control | [20] 97 % of control

COC(=O)Nc1cccc(OC(=O)NC2CCCCC2)c1
inactive: [1] 100 % of control | [2] 100 % of control | dose: 400.0 mg/kg/injection, schedule: Q04DX003 (ip), vehicle: saline with Tween-80 93 % of control

c1cc[c]([Hg][S]c2nc3ccccc3s2)cc1
inactive: dose: 50.0 mg/kg/injection, schedule: Q01DX001 (ip), vehicle: carboxymethylcellulose (CMC) 96 % of control | [21] 108 % of control

c1ccc2c(c1)ccc1cc3cnccc3cc12
inactive: [18] 95 % of control | [19] 103 % of control | [20] 101 % of control

COc1ccccc1-n1c(=O)c(N=Nc2ccc(Br)cc2)c(O)n(-c2ccccc2Cl)c1=S
inactive: [9] 107 % of control | [10] 116 % of control | [11] 98 % of control

CCC(=O)Oc1ccc(OCc2ccccc2)cc1
inactive: [5] 95 % of control | [14] 95 % of control | [7] 97 % of control | [15] 98 % of control | [16] 98 % of control | [17] 95 % of control

CC(=O)Nc1ccc(NCN2C(=O)c3ccccc3C2=O)cc1
inactive: [14] 100 % of control | [15] 97 % of control | [17] 97 % of control

CCOP(=O)(CC)C(Cl)(Cl)Cl (centres undefined)
inactive: dose: 100.0 mg/kg/injection, schedule: Q04DX002 (ip), vehicle: saline with Tween-80 93 % of control | dose: 200.0 mg/kg/injection, schedule: Q04DX002 (ip), vehicle: saline with Tween-80 90 % of control | dose: 400.0 mg/kg/injection, schedule: Q04DX002 (ip), vehicle: saline with Tween-80 93 % of control

CC(=O)c1ccc(OC(=O)Oc2ccc(C(C)=O)cc2)cc1
inactive: [21] 93 % of control | dose: 200.0 mg/kg/injection, schedule: Q01DX001 (ip), vehicle: carboxymethylcellulose (CMC) 101 % of control | dose: 400.0 mg/kg/injection, schedule: Q01DX001 (ip), vehicle: carboxymethylcellulose (CMC) 93 % of control

CCCCC(C)(O)c1cc(OC)cc(OC)c1 (centres undefined)
inactive: dose: 100.0 mg/kg/injection, schedule: Q01DX001 (ip), vehicle: saline with Tween-80 104 % of control | dose: 200.0 mg/kg/injection, schedule: Q01DX001 (ip), vehicle: saline with Tween-80 97 % of control | dose: 400.0 mg/kg/injection, schedule: Q01DX001 (ip), vehicle: saline with Tween-80 87 % of control
